Values after ≈ are worked out from the molar mass of the structure shown.
Tested on: Mycobacterium tuberculosis
Assay: Antitubercular activity against Isoniazid,rifampicin,gatifloxacin-resistant Mycobacterium tuberculosis after 60 days
Assay type: functional

Row | SMILES | MIC50 [µg/mL] | MIC90 [µg/mL]
1 | O=C(Cn1c2ccccc2c2nc3ccccc3nc21)N1N=C(c2cc3cc(O)ccc3o2)CC1c1ccccc1Cl (stereo not given) | 4.68 (≈ 8.18 µM) | 8.61 (≈ 15.1 µM)
2 | COc1ccc(C2CC(c3cc4cc(O)ccc4o3)=NN2C(=O)Cn2c3ccccc3c3nc4ccccc4nc32)cc1 (stereo not given) | 11.5 (≈ 20.3 µM) | 15.4 (≈ 27.1 µM)
3 | COc1ccc(C2CC(c3cc4cc(O)ccc4o3)=NN2C(=O)Cn2c3ccccc3c3nc4ccccc4nc32)c(O)c1 (stereo not given) | 7.8 (≈ 13.4 µM) | 13.1 (≈ 22.4 µM)
4 | O=C(Cn1c2ccccc2c2nc3ccccc3nc21)N1N=C(c2cc3cc(O)ccc3o2)CC1/C=C/c1ccccc1 (stereo not given) | 5.6 (≈ 9.94 µM) | 11.3 (≈ 20.1 µM)
5 | CO[C@H]1/C=C/O[C@@]2(C)Oc3c(C)c(O)c4c(O)c(c(/C=N/N5CCN(C)CC5)c(O)c4c3C2=O)NC(=O)/C(C)=C\C=C\[C@H](C)[C@H](O)[C@@H](C)[C@@H](O)[C@@H](C)[C@H](OC(C)=O)[C@@H]1C [RIFAMPIN] | 4.21 (≈ 5.12 µM) | 7.37 (≈ 8.96 µM)
6 | O=C(Cn1c2ccccc2c2nc3ccccc3nc21)N1N=C(c2cc3cc(O)ccc3o2)CC1c1cccc([N+](=O)[O-])c1 (stereo not given) | 1.2 (≈ 2.06 µM) | 2 (≈ 3.43 µM)
7 | COc1c(N2CCNC(C)C2)c(F)cc2c(=O)c(C(=O)O)cn(C3CC3)c12 (stereo not given) [GATIFLOXACIN] | 14.7 (≈ 39.2 µM) | 28.5 (≈ 75.8 µM)
8 | COc1ccccc1C1CC(c2cc3cc(O)ccc3o2)=NN1C(=O)Cn1c2ccccc2c2nc3ccccc3nc21 (stereo not given) | 10.7 (≈ 18.8 µM) | 13.6 (≈ 24 µM)
9 | O=C(Cn1c2ccccc2c2nc3ccccc3nc21)N1N=C(c2cc3cc(O)ccc3o2)CC1c1ccccc1[N+](=O)[O-] (stereo not given) | 3.24 (≈ 5.56 µM) | 7.2 (≈ 12.4 µM)
10 | O=C(Cn1c2ccccc2c2nc3ccccc3nc21)N1N=C(c2cc3cc(O)ccc3o2)CC1c1ccco1 (stereo not given) | 6.4 (≈ 12.1 µM) | 9.78 (≈ 18.5 µM)
11 | CC(=O)c1ccccc1C1CC(c2cc3cc(O)ccc3o2)=NN1C(=O)Cn1c2ccccc2c2nc3ccccc3nc21 (stereo not given) | 9.56 (≈ 16.5 µM) | 7.45 (≈ 12.9 µM)
12 | O=C(Cn1c2ccccc2c2nc3ccccc3nc21)N1N=C(c2cc3cc(O)ccc3o2)CC1c1ccccc1O (stereo not given) | 10.3 (≈ 18.7 µM) | 12.6 (≈ 22.7 µM)
13 | O=C(Cn1c2ccccc2c2nc3ccccc3nc21)N1N=C(c2cc3cc(O)ccc3o2)CC1c1ccc(O)cc1 (stereo not given) | 9.86 (≈ 17.8 µM) | 11.2 (≈ 20.3 µM)
14 | O=C(Cn1c2ccccc2c2nc3ccccc3nc21)N1N=C(c2cc3cc(O)ccc3o2)CC1c1ccc(Cl)cc1 (stereo not given) | 5.23 (≈ 9.14 µM) | 8.66 (≈ 15.1 µM)
15 | CN(C)c1ccc(C2CC(c3cc4cc(O)ccc4o3)=NN2C(=O)Cn2c3ccccc3c3nc4ccccc4nc32)cc1 (stereo not given) | 5 (≈ 8.61 µM) | 8.98 (≈ 15.5 µM)
